Data published in patent US20250130239A1, “PROTEIN DEGRADER” (University of Dundee, priority 2021, published 2025).

Legend:
22RV1 cells = test: CellTiter-Glo cell viability assay, 22RV1; type: cell-based, human; conditions: up to 10 μM; 48 h
Experimental: Cell Viability Assay. MV-4-11 cells were plated at a density of 2×10^4 cell per well of a 96 well white-bottom plate, and left to grow overnight in 50 μl of IMDM (Invitrogen, arlsebad, CA, USA) supplemented with 10% (v/v) Fetal bovine serum (FBS) (Thermo Fisher, Waltham, MA, USA) and 1% (v/v) penicillin/streptomycin (pen/strep) (#15140122, Thermo Fisher, Waltham, MA, USA) at 37° C., 5% CO2, and 95% humidity. […] These cells were then left to incubate at 37° C., 5% CO2, and 95% humidity for one day prior to undergoing spectrophotometric analysis. 22RV1 cells were plated at a density of 2×10^4 cell per well of a 96 well white-bottom plate, and left to grow overnight in 100 μL of RPMI-1640 (Invitrogen, Carlsebad, CA, USA) supplemented with 10% (v/v) fetal bovine serum (FBS) (Thermo Fisher, Waltham, MA, USA) and 1% (v/v) penicillin/streptomycin (pen/strep) (#15140122, Thermo Fisher, Waltham, MA, USA) at 37° C., 5% CO2, and 95% humidity. […] Plates were subjected to 2 mins on an orbital shaker to encourage lysis and left for a further 5 mins to reach peak luminescence. Luminescence was then recorded on a BMG Labtech PHERAstar luminescence plate reader with recommended settings. Data extracted from this analysis was analysed with Graphpad Prism (v. 8.2.0, GraphPad) and normalized to the DMSO vehicle control. […]

[1] = tested on: BRD3, BRD4 or any other endogenous protein; test: TMT labeling mass spectrometry proteomics, off-targets; type: cell-based, human; conditions: 1 μM, 2 h; >6,621 proteins quantified
Experimental: Sample processing, TMT labelling and fractionation. CRISPR modified BromoTag-Brd2 HEK293 cells were seeded 5×10^6 cells on a […] 24 h before treatment. Cells were treated with either DMSO, 1 μM AGB1 or 1 μM cis-AGB1. 2 h post-treatment, the cells were washed twice with PBS. Cells were lysed in 150 μL of 100 mM TEAB, 5% (w/v) SDS. The lysate was sonicated for 10 s and then centrifuged at 15,000 g for 5 min with the supernatant collected post-centrifugation. Samples were then quantified using a micro-BCA protein assay kit (Thermo Fisher Scientific); 300 μg of each sample were then reduced, alkylated and then digested using Strap mini protocol (Protifi) protocol as described by the manufacturer (protifi) with some modification. Samples were double digested with trypsin (1:40) first overnight then for another 6 hrs with the same ratio (1:40) in 50 mM TEAB buffer. Peptides were quantified using a quantitative fluorometric peptide assay (Thermo Fisher Scientific). The samples (90 μg each) were labelled with a TMT 10-plex Isobaric Label Reagent set (Thermo Fisher Scientific) as per the manufacturer's instructions. After labelling, samples were checked for labelling efficiency, then mixed, desalted, and dried in a speed-vac at 30° C. Samples were re-dissolved in 200 μl ammonium formate (10 mM, pH 9.5) and peptides were fractionated using High pH RP Chromatography. […]

For CC[C@@H](C(=O)OCCOCCOCCOCC(=O)N[C@H](C(=O)N1C[C@H](O)C[C@H]1C(=O)NCc1ccc(-c2scnc2C)cc1)C(C)(C)C)[C@@H]1N=C(c2ccc(Cl)cc2)c2c(sc(C)c2C)-n2c(C)nnc21 (single isomer, unassigned) [AGB1 (46)], the cytotoxicity (22RV1 cells) was “lack of cytotoxicity” and the “depletion of BRD3, BRD4 or any other endogenous protein (proteomics)” value [1] was “no detectable off-target effects”.
